Measured values from paper PMC12415548 (RSC Advances, 2025).
≈ marks a conversion by molar mass, not a printed value. Read-outs that look alike come from different tables or passages of the source.

Columns and labels:
[1] = tested on: MCF-7 breast cancer cell line; assay: MTT cytotoxicity assay, MCF-7; type: cell-based; settings: Homo sapiens, MCF7, read-out: IC50 (μg mL^−1) ± SD MCF7
[2] = tested on: MDA-MB-231 breast cancer cell line; assay: MTT cytotoxicity assay, MDA-MB-231; type: cell-based; settings: Homo sapiens, MDA-MB-231, read-out: IC50 (μg mL^−1) ± SD MDA-MB231
[3] = biological target: AChE (Homo sapiens, UniProt P22303); assay: Anticholinesterase inhibitory assay; type: biochemical
Sequence of AChE (P22303 32-614): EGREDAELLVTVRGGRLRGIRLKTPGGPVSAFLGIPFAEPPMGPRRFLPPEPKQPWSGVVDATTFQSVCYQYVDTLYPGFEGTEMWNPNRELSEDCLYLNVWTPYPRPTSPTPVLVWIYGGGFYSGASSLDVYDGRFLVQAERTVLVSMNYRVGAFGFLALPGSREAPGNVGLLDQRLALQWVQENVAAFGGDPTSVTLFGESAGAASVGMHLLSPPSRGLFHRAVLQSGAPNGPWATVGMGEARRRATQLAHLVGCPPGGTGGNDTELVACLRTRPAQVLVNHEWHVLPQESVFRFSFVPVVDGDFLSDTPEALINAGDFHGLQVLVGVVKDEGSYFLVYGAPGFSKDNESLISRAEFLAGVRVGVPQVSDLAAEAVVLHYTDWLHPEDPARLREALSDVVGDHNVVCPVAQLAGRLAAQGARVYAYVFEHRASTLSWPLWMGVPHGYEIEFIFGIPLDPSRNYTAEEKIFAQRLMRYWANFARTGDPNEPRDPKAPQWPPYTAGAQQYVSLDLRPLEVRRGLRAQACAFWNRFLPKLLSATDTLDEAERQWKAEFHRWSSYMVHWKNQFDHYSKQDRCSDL

[4] = tested on: MRSA (Staphylococcus aureus ATCC 43300); assay: Anti-MRSA MIC, broth microdilution; type: cell-based; settings: for anti-MRSA potency compared to Linezolid: MIC comparison; for Interpretation (of MIC): MRSA, Table 3
[5] = tested on: MCF-7 cells; assay: Apoptosis induction in MCF-7 cells; type: cell-based, human; settings: MCF-7 cells (Fig. 4)
[6] = tested on: MDA-MB-231 cells; assay: Apoptosis induction in MDA-MB-231 cells; type: cell-based, human; settings: MDA-MB-231 cells (Fig. 4)
[7] = tested on: MRSA (Staphylococcus aureus ATCC 43300); assay: Minimum bactericidal concentration; type: cell-based; settings: for Interpretation (of MBC/MIC): Table 4
[8] = tested on: MRSA biofilm; assay: Antibiofilm activity, crystal violet assay; type: cell-based, Staphylococcus aureus
[9] = tested on: normal HDF cells; assay: Apoptosis/cytotoxicity in normal HDF cells
[10] = tested on: MRSA; assay: Time-kill assay against MRSA; type: cell-based, Staphylococcus aureus; settings: 0-24 h
[11] = tested on: MCF-7 breast cancer cell line; settings: read-out: IC50 in MCF-7; known value quoted for comparison; no reference given; cited from earlier work

Compound	IC50 [1]	IC50 [2]	IC50 [3]	anti-MRSA potency compared to Linezolid [4]	Interpretation (of MIC) [4]	apoptosis induction [5]	apoptosis induction [6]	MBC/MIC [7]	Interpretation (of MBC/MIC) [7]	apoptosis / cytotoxicity in normal cells [9]	other results
COc1cccc2c1C(=O)c1c(O)c3c(c(O)c1C2=O)C[C@@](O)(C(=O)CO)C[C@@H]3O[C@H]1C[C@H](N)[C@H](O)[C@H](C)O1 [Doxorubicin, reference compound]	25.1 ± 1.67 µg/mL (≈ 46.3 µM)	36.6 ± 2.12 µg/mL (≈ 67.3 µM)	–	–	–	–	–	–	–	–	–
CN1C(=S)N(c2ccccc2)C(=O)/C1=C1/C(=O)N(C)c2ccc(Cl)cc21 [Compound 12, (Z)-5-chloro-1-methyl-3-(3-methyl-5-oxo-1-phenyl-2-thioxoimidazolidin-4-ylidene)indolin-2-one]	16 ± 1.15 µg/mL (≈ 41.7 µM)	27.3 ± 2.01 µg/mL (≈ 71.1 µM)	–	–	–	–	–	–	–	–	–
CCc1ccc(N2C(=O)/C(=C3/C(=O)N(C)c4ccc(Cl)cc43)NC2=S)cc1 [Compound 9, (Z)-5-chloro-3-(1-(4-ethylphenyl)-5-oxo-2-thioxoimidazolidin-4-ylidene)-1-methylindolin-2-one]	24 ± 1.49 µg/mL (≈ 60.3 µM)	28.4 ± 2.19 µg/mL (≈ 71.4 µM)	302 nM	significantly less potent	Weak activity	–	–	–	–	–	–
CN1C(=O)/C(=N\Nc2ncc(-c3cc4ccccc4oc3=O)s2)c2cc(Cl)ccc21 [Compound 5, (Z)-5-chloro-1-methyl-3-(2-(5-(2-oxo-2H-chromen-3-yl)thiazol-2-yl)hydrazono)indolin-2-one]	10.8 ± 1.19 µg/mL (≈ 24.8 µM)	14.4 ± 1.89 µg/mL (≈ 33.1 µM)	99.8 nM	superior potency	Extremely potent	moderate apoptosis	moderate apoptosis	5.7	Moderate bactericidal	significantly lower cytotoxicity	inhibition at 1.3 µg/mL ([8]; Staphylococcus aureus, MRSA, read-out: inhibition of MRSA biofilm formation): ~40%; eradication of preformed MRSA biofilms ([8]; various concentrations (Fig. 8Z)): eradication efficiency increasing in a concentration-dependent manner
CC(=O)NC[C@H]1CN(c2ccc(N3CCOCC3)c(F)c2)C(=O)O1 [Linezolid, reference compound]	–	–	–	–	–	–	–	17.6	Bacteriostatic	–	time-kill outcome [10]: remained bacteriostatic, showing no significant kill at any time point
CC1(C)CCC(c2ccc(Cl)cc2)=C(CN2CCN(c3ccc(C(=O)NS(=O)(=O)c4ccc(N[C@H](CCN5CCOCC5)CSc5ccccc5)c(S(=O)(=O)C(F)(F)F)c4)cc3)CC2)C1 [Navitoclax, reference compound]	–	–	–	–	–	high levels of apoptosis	high levels of apoptosis	–	–	high levels of apoptosis	IC50 [11]: 1000 nM
